Experiments:
bFGF mRNA = assay: Effect on additional expression of bFGF mRNA in RGM1 cells (RT-PCR, band intensity); assay type: cell-based, rat; parameters: key: ++: the expression of the bFGF mRNA in the imidazoline-treated cells was considerably increased; +: the expression of the bFGF mRNA was increased to some extent; details: 48 hours, vs cells without the derivative
Excerpt: Effect of imidazoline derivatives on the additional expression of the bFGF
There will be next explained an effect of the imidazoline derivatives in vitro.
Initially, there will be explained an effect of the imidazoline derivative on the additional expression of bFGF in the cells cultured. The reverse transcription-polymerase chain reaction (PCR) was used to explain the effects of imidazoline derivatives on the additional expression of bFGF, and then the PCR products were subjected to electrophoresis to confirm a bFGF band.
An established rat gastric mucosal epithelial cell line RGM1 was seeded in petri dishes (1×10^6 cells/dish), in the presence of D-MEM/Ham 12 (1:1) mixed medium containing 20% fetal calf serum. After 24 hours, the imidazoline derivatives as the specimen drugs according to the present invention were applied in the culture medium, and the cells were cultured for 48 hours. The compounds prepared in Examples 1 and 14 were used as the specimen drugs. Cultures were then supplemented with the compounds in final concentrations (10 μM and 100 μM for the compound of Example 1, and 3 μM, 10 μM and 100 μM for the compound of Example 14).
From the cultured cells of each sample subjected to the above-described processing by the specimen drugs, total cellular RNA was extracted according to Acid Guanidinium Thiocyanate-Phenol-Chloroform method (AGPC). Described more specifically, after cultivation with the above compounds in the culture medium, the culture supernatant was completely removed by suction. To the cells of each sample left in the petri dish, 500 μL of Solution D (consisting of: 4M of guanidinethiocyanate; 25 mM of sodium citrate; 0.5% sarkosyl solution, 0.1M of 2-mercaptoethanol) was added, and the cells were scraped with rubber policeman (available from SUMITOMO BAKELITE CO., LTD.). The thus obtained cell suspension was transfered into a micro centrifuge tube, and there were successively added 50 μL of 2M sodium acetate (pH 4.0), 500 μL of water-saturated phenol and 100 μL of chloroform-isoamyl alcohol (49:1). The suspension was mixed each time the above-described substances were added. The suspension was placed on ice for 15 minutes after it was intensely shaken for 1 minute. Then, the suspension was centrifuged at 10000 rpm for 20 minutes at 4° C. The aqueous layer (upper layer) was transfered into another micro centrifuge tube, and was intimately mixed with an equivalent amount of isopropanol. After the mixture was kept at -20° C. for one hour, it was centrifuged at 10000 rpm for 20 minutes at 4° C. After the centrifugation, the upper layer was discarded, and a precipitate of mRNA was completely dissolved in 200 μL of Solution D. The thus obtained solution was mixed again with an equivalent amount of isopropanol and the mixture was kept at -20° C. for one hour. The mixture was then subjected to centrifugation for 20 minutes at 4° C. and 10000 rpm. After the centrifugation, the supernatant was discarded, and the precipitate was centrifuged at 10000 rpm for 10 minutes at 4° C. The supernatant was discarded, while the precipitate was dried in vacuo for 5 minutes. The total RNA was dissolved in 50 μL of distilled water processed by diethyl pyrocarbonate (DEPC). The concentration of total RNA was measured on the basis of its absorbance at 260 nm by ultraviolet spectrum.
The CDNA synthesis was performed by means of Reverse Transcriptase using the above obtained total RNA as a template. As a primer, a random primer was employed. […]

wound in rat = assay: Healing effect on wound in rat; assay type: in vivo, SD rats; details: for Healing days / Healing Index: 15 days; for effect on healing days and Healing Index (in words): TABLES 7 and 8
Method: Healing Effect on wound in rat
Male 7-week SD rats were classified into groups each consisting of 6-7 rats, such that all the groups have substantially the same average weight. The experiment was performed on the rats according to a method of Tsurumi et al. (Oyo Yakuri, Vol. 7, pp833, 1973). Initially, the rats were subjected to an anesthesia with pentobarbital. The hair of the back of each rat was clipped, and the skin was disinfected with 70% ethanol. Then, the skin was lightly pulled and punched off in a direction from the right to the left by means of a punch whose diameter is 10 mm, so as to form two open wounds on portions of the back of the rat which are symmetrical to each other with respect to the center line of the back. The compounds of Examples indicated in the following TABLES 7 and 8 were used as specimen drugs, and orally administered once a day to each of the rats with doses indicated in the TABLES 7 and 8. The oral administration continued for 15 consecutive days, beginning from the first day when the wounds were formed on the back of each rat.
To clarify the healing effect on the wounds, an Healing Index and healing days were obtained in the following manner. Initially, the lengths of a major axis and a minor axis of each wound formed on the back were measured using calipers. On the basis of the measured length values, the area of each wound was calculated as the area of an ellipse. The Healing Index was obtained according to a method of Nakano et al. (Oyo Yakuri, Vol. 47, pp29, 1994). Described more specifically, a ratio of area of each wound was chronologically represented in a graph, and an area of the lower part of a curve in the graph during a period from the fifth day to the fifteenth day after the wounds were formed was obtained as the Healing Index. […] The healing days were obtained as the number of the days that were required for the wounds to be completely covered with regenerated epidermises. As for the wound that was healed in more than 15 days, the healing days were obtained as 16 days.

[1] = tested on: water-immersion restraint stress-induced gastric ulcer; assay: Inhibitory effect on water-immersion restraint stress-induced gastric ulcer; assay type: in vivo, SD rats; details: 10 mg/kg oral, 30 min before stress
Method: Inhibitory effect on water-immersion restraint stress-induced gastric ulcer
Male 7-week SD rats were fasted for 24 hours, with a fast of water beginning in early morning of the day when the experiments were performed. The rats were classified into groups each consisting of five rats, such that all the groups have substantially the same average weight. Thirty minutes before giving a stress to the rats, the compounds of the Examples indicated in TABLE 3 were orally administered as specimen drugs to the rats, with a dose of 10 mg/kg. The rats were then kept in stress cages, and were given a stress by immersing the cages in a water bath kept at a substantially constant temperature of 23°±1° C., such that the water level was at the height of the xiphoid of the rats. Seven hours later, the specimen rats were sacrificed by ether, and the gastric mucosa of each rat was semi-fixed with 2% formaline. The longitudinal length of the damaged area of the gastric mucosa was measured. A sum of the measured length values of the rats of each group was calculated as an ulcer index. An anti-ulcer or ulcer inhibitory percent (%) was calculated as {1-(ulcer index of each group of specimen rats)/(ulcer index of non-specimen group)}×100.

bFGF = assay: Production amount of bFGF in RGM1 culture supernatant (ELISA); assay type: cell-based, Wistar rat; details: not stated which
Method: Effect of imidazoline derivatives on the additional expression of bFGF
Initially, RGM1 cells which are derived from a gastric mucosa epithelial cell of a Wistar rat were seeded into 24 well plates (2×10^4 cells/dish, 1 mL/well), and cultured for 24 hours. As the imidazoline derivative according to the present invention, the compound obtained in Example 14 was used. The compound was applied to the cells in final concentrations of 3 μM, 10 μM and 30 μM. After 24 hours, the culture supernatants which correspond to the respective concentration values were collected, and analyzed using bFGF ELISA kit. Similarly, the culture supernatants were collected 48 hours after the application of the compound. Described more specifically, 50 μL of each culture supernatant was applied to a 96 well microplate coated with bFGF monoclonal antibody. The plate was incubated for a predetermined time so that the bFGF contained in each culture supernatant was bonded to the bFGF monoclonal antibody. Thereafter, each supernatant was reacted with horseradish peroxidase conjugated antibody which is able to recognize another epitope of the bFGF, so as to form, on the 96 well microplate, a sandwich type composite body consisting of immobilized antibody (bFGF monoclonal antibody), antigen (bFGF), and HRP linked antibody. Subsequently, HRP linked antibody of the composite body was colored using o-phenylenediamine and H2 O2. The reaction was terminated by using sulfuric acid after a predetermined time has elapsed. Then, the absorbance of reactant at 490 nm was measured using a micro-platereader. The production amount of the bFGF was obtained for each culture supernatant, on the basis of the measured absorbance values, according to a standard curve prepared for a standard bFGF of a human body.

[2] = tested on: gastric acid secretion in a pylorus ligated rat; assay: Inhibitory effect on the gastric acid secretion in a pylorus ligated rat; assay type: in vivo, SD rats; details: 4 hours
Method: Inhibitory effect on the gastric acid secretion in a pylorus ligated rat Male 7-week SD rats were fasted for 24 hours, with a fast of water beginning in early morning of the day when the experiments were performed. The rats were classified into groups each consisting of five rats, such that all the groups have substantially the same average weight. The experiments were performed according to a method of Shay et. al. (Shay, H. et. al., Gastroenterology, Vol. 5, pp43, 1945). Described more specifically, each of the rats was subjected to a light anesthesia by ether, and the hair of the abdomen of each rat was clipped. Then, the abdomen was incised over a length of 1.5 cm along the center line downwards from a portion 1 cm below the xiphoid of the rat, and the stomach was taken out of the body. A portion connecting the pylorus and the duodenum was ligated by suturing thread. […] After the administration, the skin of the abdominal muscle and abdomen was sutured. The rats were kept in cages and fasted for 4 hours with a fast of water. Then, the rats were sacrificed by ether, and the stomach of each rat was removed. The gastric content was obtained from a small hole formed through the stomach of each rat and was collected in a test tube. […] An amount of supernatant was measured as a volume of gastric acid, and a total acidity of the gastric acid was also measured. A volume of gastric acid inhibitory percent (%) and a total acidity inhibitory percent (%) were calculated in the same manner as the ulcer inhibitory percent was calculated. The total acidity was obtained as a product of the amount of gastric acid secreted for 4 hours and the acidity per 1 mL of the gastric acid which was subjected to neutralization titration by an aqueous solution of 0.01N sodium hydroxide.

## CC1(C)N=C([S+]([O-])Cc2ccccc2NC(=O)C(F)(F)F)NC1=S (centres unmarked) [Example 1, 2-(2-N-trifluoroacetylaminobenzylsulfinyl)-5,5-dimethylimidazolin-4-thione]
bFGF mRNA; 10 μM
  Band Intensity: +
bFGF mRNA; 100 μM
  Band Intensity: +
Wound in rat; TABLE 7, 50 mg/kg oral once a day, control 15.1 ± 0.22
  Healing days: 14.4 ± 0.38 days
Wound in rat; TABLE 7, 50 mg/kg oral once a day, control 188.3 ± 18.2
  Healing Index: 183.2 ± 11.2
Wound in rat; TABLE 7, 100 mg/kg oral once a day, control 15.1 ± 0.22
  Healing days: 14.2 ± 0.37 days
Wound in rat; TABLE 7, 100 mg/kg oral once a day, control 188.3 ± 18.2
  Healing Index: 157.5 ± 18.9
Wound in rat
  effect on healing days and Healing Index (in words): effective to reduce the healing days and lower the Healing Index

## CCC1(CC)N=C([S+]([O-])Cc2ccccc2N(C)C)NC1=S (centres unmarked) [Example 7, 2-(2-dimethylaminobenzylsulfinyl)-5,5-diethylimidazolin-4-thione]
[1]
  Inhibitory Percent (ulcer): 53.9%

## CC1(C)N=C([S+]([O-])Cc2ccccc2NCC(F)(F)F)NC1=S (centres unmarked) [Example 12, 2-[2-N-(2,2,2-trifluoroethyl)aminobenzylsulfinyl]-5,5-dimethylimidazolin-4-thione]
[1]
  Inhibitory Percent (ulcer): 46.6%

## CC(C)CN(C)c1ccccc1C[S+]([O-])C1=NC(C)(C)C(=S)N1 (centres unmarked) [Example 14, 2-(2-N-isobutyl-N-methylaminobenzylsulfinyl)-5,5-dimethylimidazolin-4-thione]
bFGF mRNA; 3 μM
  Band Intensity: ++
bFGF mRNA; 10 μM
  Band Intensity: ++
bFGF mRNA; 100 μM
  Band Intensity: ++
Wound in rat; TABLE 8, 50 mg/kg oral once a day, control 14.3 ± 0.37
  Healing days: 13.5 ± 0.42 days
Wound in rat; TABLE 8, 50 mg/kg oral once a day, control 152.0 ± 9.5
  Healing Index: 116.5 ± 7.0
Wound in rat; TABLE 8, 100 mg/kg oral once a day, control 14.3 ± 0.37
  Healing days: 13.6 ± 0.44 days
Wound in rat; TABLE 8, 100 mg/kg oral once a day, control 152.0 ± 9.5
  Healing Index: 126.5 ± 8.3
Wound in rat
  effect on healing days and Healing Index (in words): effective to reduce the healing days and lower the Healing Index
bFGF; concentration of drug 3, 24 or 48 hours
  Production amount of bFGF: 15 pg/mL
bFGF; concentration of drug 10, 24 or 48 hours
  Production amount of bFGF: 29 pg/mL
bFGF; concentration of drug 30, 24 or 48 hours
  Production amount of bFGF: 36 pg/mL

## CN/C(=N/CCSCc1nc[nH]c1C)NC#N [cimetidine]
[2]; 10 mg/kg intraduodenal
  Total acidity Inhibitory percent: 27.7%
  Volume of Gastric acid Inhibitory percent: 22.7%
[2]; 30 mg/kg intraduodenal
  Total acidity Inhibitory percent: 51.8%
  Volume of Gastric acid Inhibitory percent: 31.2%
[2]; 100 mg/kg intraduodenal
  Total acidity Inhibitory percent: 76.1%
  Volume of Gastric acid Inhibitory percent: 52.8%

Source: patent US5750552A, “Imidazoline derivative, possible tautomer thereof, and vulnerary including such derivative or tautomer” (Arax Co., Ltd., priority 1995, dated 1998)
